One block for each compound: values may come before it. Non-standard residues stand in square brackets, D forms with d. pT = C[C@@H](OP(=O)(O)O)[C@H](N)C(=O)O
Assays:
[1] = test system: stellate cells from C/EBPβ−/− mice; assay: Rescue from apoptosis of stellate cells from C/EBPβ−/− mice by cell permeant tetrapeptides; type: cell-based, mouse; conditions: C/EBPβ−/− cells activated by collagen type I, tetrapeptides 10 μM, Chariot reagent, 4 hours
caspase 8 = target: T1, caspase 8 (Homo sapiens, UniProt Q14790); assay: In vitro self-activation of recombinant caspase 8; type: biochemical; conditions: peptides 200 μM, 2 h, procaspase 8 (0.2 μg), colorimetric substrate
T1 construct: 21 amino acid linker (vector-derived) (N); purchased Alexis Biochemicals 201-041-C005
Procedure: (§1) FIG. 5 provides results showing the direct association of C/EBPβ-Glu^217 with procaspases 1 and 8. […] Enzyme activity was measured in the absence (control) or presence of C/EBPβ peptides (200 μM) for 2 h, using a procaspases 1 (1U) (not shown) and 8 (0.2 μg) activity assay. Values are presented as the mean±one half the range of duplicates. Panel C provides results for cells cultured on a collagen type I matrix and incubated with the indicated cell permeant, purified synthetic N-acetyl, C-aldehyde C/EBPβ tetra-peptides (10 μM) or with recombinant C/EBPβ-HA peptides as indicated, together with the Chariot reagent (Active Motif) for 4 h. Control cells were incubated without peptides (P<0.05 for all peptides containing Ala^217).
(§2) FIG. 7 provides data showing that phosphorylation of rat C/EBPβ on Ser^105 prevents stellate cell apoptosis. Panel A provides results for mouse stellate cells transfected as described herein (See, FIG. 2), with mutant p90RSK or treated with lactacystin (10 μM) (closed bars), and co-transfected with CMV-rC/EBPβ-Asp^105 (1 μg each) (open bars) as indicated. Annexin-V-PE binding was determined as described for FIG. 2 (P<0.05 for rC/EBPβ-Asp^105). Panel B provides results of an annexin-V-PE assay for stellate cells from C/EBPβ^+/+ (closed circles) and rC/EBPβ-Asp^105 transgenic (open circles) mice treated with lactacystin (0-30 μM). The annexin-V-PE assay was performed 6 hours after treatment began (P<0.05 for rC/EBPβ-Asp^105 transgenic mice for 5-25 μM lactacystin). Panel C provides results for rC/EBPβ-HA constructs (0.3 μg) transfected into rat stellate cells. The expressed peptides were immunoprecipitated with anti-HA antibodies. Using a specific antibody, rCEBPβ-PSer^105 was detected only in cells that expressed wild-type rC/EBPβ. […] Reciprocal immunoprecipitations confirmed these associations. […] Enzyme activity was measured using a colorimetric substrate as described in the Examples. […]
(§3) Purified recombinant C/EBPβ peptides, expressed as known in the art (See, Descombes et al., supra; and Buck et al. (1994), supra), and purified synthetic N-acetyl, C-aldehyde tetrapeptides (200 μM) (American Peptide Company) were assayed for their ability to inhibit the activity of purified human recombinant caspases 1 (catalogue # 201-056) and 8 (catalogue # 201-041-C005) (Alexis Biochemicals). […] Caspase activity was determined by the release of the p-nitroaniline colorimetric (Alexis Biochemicals) substrate for caspase 1 (catalogue # 260-026) or 8 (catalogue # 260-045) within the linear part of the kinetic assay (Thornberry et al. (1997), supra; Stennicke and Salvesen, supra). […]

hepatic stellate cells = assay: Apoptosis of stellate cells on collagen type I incubated with cell permeant peptides; type: cell-based, mouse; conditions: collagen type I matrix, tetrapeptides 10 μM, Chariot reagent, 4 h
Procedure: as §1, with “Ala^217). […]” for “Ala^217).”
Fluorescent labels were observed using a triple-channel fluorescence microscope. […] The number of annexin V (+) cells was determined by in vivo microscopy as known in the art (See, Rudel and Bokoch, supra) among all cells or those expressing the GFP indicator protein either co-transfected with C/EBPβ proteins, or alone. […] At least 1000 cells were analyzed per experimental point, including at least 100 cells expressing the transfected DNA (Buck and Chojkier, EMBO J., 15:1753-1765 (1996); Buck et al., (1994), supra; and Buck et al., (1999), supra). […] Nuclear morphology was analyzed by staining cells with Hoechst 33342 (Molecular Probes). […]

C/EBPβ+/+ stellate cells = assay: Annexin-V-PE assay of stellate cells treated with lactacystin; type: cell-based, mouse; conditions: lactacystin 0-30 μM, 6 hours after treatment began
Procedure: as §2

caspase 1 = target: T2, caspase 1 (Homo sapiens, UniProt P29466); assay: In vitro self-activation of recombinant caspase 1; type: biochemical; conditions: peptides 200 μM, 2 h, procaspase 1 (1U)
T2 construct: purchased Alexis Biochemicals 201-056
T2 sequence (P29466 120-404): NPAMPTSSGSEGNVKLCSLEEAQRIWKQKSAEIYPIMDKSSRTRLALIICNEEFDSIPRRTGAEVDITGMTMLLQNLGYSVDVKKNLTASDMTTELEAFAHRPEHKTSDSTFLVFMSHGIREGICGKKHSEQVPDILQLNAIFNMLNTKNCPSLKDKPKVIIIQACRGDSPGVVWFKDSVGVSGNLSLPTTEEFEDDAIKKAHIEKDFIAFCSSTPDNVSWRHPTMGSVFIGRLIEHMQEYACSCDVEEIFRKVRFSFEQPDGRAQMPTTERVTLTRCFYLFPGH
Procedure: as §1
as §3, with “Biochemicals). The sequence of caspase 8 includes Ser217 through Asp479 cloned into an expression vector containing a 21 amino acid linker at the N-terminus. Thus, the prodomain (first 220 amino acids) is essentially missing.” for “Biochemicals).”
To delineate the role of C/EBPβ on the activation of procaspases 1 and 8, the self-activation of recombinant procaspases 1 and 8 was induced in vitro (Wilson et al., supra; Margolin et al., supra; and Earnshaw et al., supra), and the effect of purified recombinant C/EBPβ peptides, produced as described previously (Descombes et al., supra; and Buck et al., (1994), supra) on this process was determined. […]

[2] = test system: C/EBPβ-Ala^217 stellate cells; assay: Apoptosis of stellate cells from C/EBPβ-Ala^217 transgenic mice, Hoechst 33342 nuclear staining; type: cell-based, mouse; conditions: collagen type I; IETD or transfection 1 μg
Procedure: FIG. 2 provides results showing increased apoptosis in hepatic stellate cells from C/EBPβ^−/− and C/EBPβ-Ala^217 transgenic mice. […] Six hours after cultivation, an annexin-V-PE binding assay was performed (P<0.05 for C/EBPβ^−/− and C/EBPβ-Ala^217). […] Apoptotic cells are indicated with arrowheads.
Fluorescent labels were observed using a triple-channel fluorescence microscope. The fluorochromes utilized were FITC and Texas red (Molecular Probes). The number of annexin V (+) cells was determined by in vivo microscopy as known in the art (See, Rudel and Bokoch, supra) among all cells or those expressing the GFP indicator protein either co-transfected with C/EBPβ proteins, or alone. These values are reported herein as a percentage of annexin V (+) for cells expressing the transfected DNA. At least 1000 cells were analyzed per experimental point, including at least 100 cells expressing the transfected DNA (Buck and Chojkier, EMBO J., 15:1753-1765 (1996); Buck et al., (1994), supra; and Buck et al., (1999), supra). […] Nuclear morphology was analyzed by staining cells with Hoechst 33342 (Molecular Probes). […]

procaspase 8 = procaspase 8 (Homo sapiens, UniProt Q14790); conditions: cited from earlier work
Chain of procaspase 8 (Q14790 whole entry): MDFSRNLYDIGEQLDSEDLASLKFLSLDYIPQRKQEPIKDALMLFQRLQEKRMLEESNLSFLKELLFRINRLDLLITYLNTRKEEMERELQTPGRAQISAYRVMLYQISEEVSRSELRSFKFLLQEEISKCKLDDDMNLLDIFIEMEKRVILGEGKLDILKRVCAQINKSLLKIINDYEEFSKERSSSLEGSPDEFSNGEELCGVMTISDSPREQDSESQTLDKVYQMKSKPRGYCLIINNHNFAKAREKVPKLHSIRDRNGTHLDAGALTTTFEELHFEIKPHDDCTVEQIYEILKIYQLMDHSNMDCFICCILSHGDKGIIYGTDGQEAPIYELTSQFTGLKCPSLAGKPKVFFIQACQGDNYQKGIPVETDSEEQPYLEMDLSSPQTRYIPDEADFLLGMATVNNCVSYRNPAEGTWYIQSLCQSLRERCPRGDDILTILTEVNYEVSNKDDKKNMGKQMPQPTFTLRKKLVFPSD

T1 sequence (Q14790 217-479): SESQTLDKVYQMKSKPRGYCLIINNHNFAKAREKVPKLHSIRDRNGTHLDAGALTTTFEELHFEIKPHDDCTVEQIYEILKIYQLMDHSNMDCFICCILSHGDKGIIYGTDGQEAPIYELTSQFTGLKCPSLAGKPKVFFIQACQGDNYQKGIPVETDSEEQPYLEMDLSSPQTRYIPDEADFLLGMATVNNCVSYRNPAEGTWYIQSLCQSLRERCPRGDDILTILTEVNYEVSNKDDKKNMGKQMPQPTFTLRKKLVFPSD

Inhibition of in vitro self-activation of caspase 8 (caspase 8): inhibited the in vitro self-activation
Compound: Ac-KKPD^105-CHO (Ac-KKPD-aldehyde; SMILES CC(=O)N[C@@H](CCCCN)C(=O)N[C@@H](CCCCN)C(=O)N1CCC[C@H]1C(=O)N[C@H](C=O)CC(=O)O) [cell permeant synthetic N-acetyl, C-aldehyde tetrapeptide, phosphorylation mimic domain of rC/EBPβ]
Rescue of stellate cells from apoptosis [1]: rescued these cells from apoptosis

Compound: Ac-KA^217VD-CHO
Induction of apoptosis of stellate cells (hepatic stellate cells): induced apoptosis

Compound: CC(=O)N[C@@H](CSC(=O)[C@]1([C@@H](O)C(C)C)NC(=O)[C@H](C)[C@@H]1O)C(=O)O [Lactacystin, lactacystin]
Stellate cell apoptosis (C/EBPβ+/+ stellate cells): significant and rapid increase

Compound: Ac-K-Phospho-T^217VD-CHO (Ac-K[pT]VD-aldehyde; SMILES CC(=O)N[C@@H](CCCCN)C(=O)N[C@H](C(=O)N[C@H](C(=O)N[C@H](C=O)CC(=O)O)C(C)C)[C@@H](C)OP(=O)(O)O) [synthetic N-acetyl, C-aldehyde C/EBPβ 216-219-PThr^217 tetrapeptide]
Inhibition of in vitro self-activation of caspase 8 (caspase 8): inhibited the in vitro self-activation | Inhibition of in vitro self-activation of caspase 1 (caspase 1): inhibited the in vitro self-activation

Compound: IETD [reference compound]
Block of apoptosis of C/EBPβ-Ala^217 stellate cells [2]: blocked

Compound: DEVD-CHO
Ki (procaspase 8): 12 nM

Inhibition of in vitro self-activation of caspase 8 (caspase 8): inhibited the in vitro self-activation | Inhibition of in vitro self-activation of caspase 1 (caspase 1): inhibited the in vitro self-activation
Compound: Ac-KE^217VD-CHO (Ac-KEVD-aldehyde; SMILES CC(=O)N[C@@H](CCCCN)C(=O)N[C@@H](CCC(=O)O)C(=O)N[C@H](C(=O)N[C@H](C=O)CC(=O)O)C(C)C) [cell permeant synthetic N-acetyl, C-aldehyde tetrapeptide, phosphorylation mimic domain of C/EBPβ]
Rescue of stellate cells from apoptosis [1]: rescued these cells from apoptosis

Source: US8129349B2, “Treatment of disease by inducing cell apoptosis” (The Regents of the University of California, priority 2000, dated 2012)
